{
  "source": "patent US20250195653A1",
  "about": "“MULTIFUNCTIONAL NATURAL KILLER (NK) CELL ENGAGER COMBINATION THERAPY FOR TREATING HEMATOLOGICAL NEOPLASTIC DISORDERS” (SANOFI, priority 2023, published 2025)",
  "key": {"[1]": {"system": "NK cells", "experiment": "NK cell phenotype in the presence of AZA or VEN", "assay_type": "cell-based, human", "conditions": "AZA or VEN at defined concentrations (1 μM AZA, 1 nM VEN, 48 h)", "method": "(§1) Human NK cells were purified from PBMCs using MACSxpress® Whole Blood NK Cell Isolation Kit (Miltenyi, ref #130-127-695) according to supplier recommendations. NK cells were then cultured in complete medium at 5×10^6 cells/mL at +37° C. at 5% CO2 (so called “resting” NK cells) overnight before being used in the activation assay.\n(§2) Following the proper timing of incubation (from 6 h to 72 h), 0.05×10^6 cells/well MOLM-13 and NK cells in 96-well round bottom plates (Corning® Costar® Ultra-Low Attachment Multiple 96-Well Plate; Thermo Scientific, Denmark, ref #7007) were centrifuged at 300 g for 5 minutes at RT. Supernatant was aspirated and Tampon Running Buffer (Miltenyi, ref #130-091-2221) or the antibodies were added to the cell pellets (50 μL/well). In addition, 1 μL of each antibody was used to stain the compensation beads. The cells and the beads were incubated for 20 minutes at 4° C. Two consecutive washing steps were performed by adding 150 and then 200 μL of Tampon Running Buffer in the wells followed by centrifugation at 300 g for 5 minutes at 4° C.\n(§3) Finally, 100 μL/well of PBS were added before reading the plate by MACSQuant Analyzer 16 Flow Cytometer. The propidium iodide (PI) marker of viability was added to every well reading at 1/10 dilution."}, "[2]": {"system": "MOLM-13 cells", "experiment": "MOLM-13 cell viability over 72 h and 6 days with AZA or VEN (flow cytometry)", "assay_type": "cell-based", "method": "as §2, §3"}, "[3]": {"system": "MOLM-13 RFP AML cells", "experiment": "Incucyte in vitro killing assay with NK effector cells, E:T 1:1", "assay_type": "cell-based", "conditions": "CD123 NKCE 5 ng/mL, AZA 600 nM or VEN 2 nM", "method": "MOLM-13 RFP cells were generated by infecting MOLM-13 (DSMZ, ACC: 554) with the Incucyte® Nuclight Red Lentivirus (Sartorius #4476) to express a nuclear-restricted mKate2 (red fluorescent protein, RFP). MOLM-13 RFP cells were harvested in the same culture medium used for wild-type cells with the addition of 1 μg/mL of puromycin (Gibco, ref #A11138-03) to maintain the selection pressure.\nHuman NK cells were purified from PBMCs using MACSxpress® Whole Blood NK Cell Isolation Kit (Miltenyi, ref #130-127-695) according to supplier recommendations. […]\nCytotoxicity was evaluated using the Incucyte live-cells analysis system which allows to quantify the number of live fluorescent target cells over time.\nFirst, 50 μL of CD123 NKCE and its isotype control were distributed in the appropriate wells of an F-bottom (flat-bottom) 96-well plate coated with poly-D-lysine (Greiner BioOne ref #655946). CD123 NKCE was tested at 5 ng/mL, while its isotype was evaluated at the highest concentration of 100 ng/ml. […]\nThe growth/proliferation of MOLM-13 RFP tumor cells was monitored by cell imaging up to 64 h using the Incucyte® S3 with standard scans every 4 h. […] Tumor cells growth/proliferation was calculated by counting the number of red cells at each time point, which was then normalized to the number of cells at time zero and expressed as a percentage."}, "[4]": {"system": "NK cells", "experiment": "NK cell viability after treatment with AZA or VEN", "assay_type": "cell-based, human", "conditions": "0.01 nM to 10 μM, 48 h, 3 independent NK donors", "method": "as §1\n(§4) Of these serial dilutions 100 μL of VEN (single agent) was added to each well that contains 100 μL of cell suspension to obtain a final concentration of 10, 1, 0.1, 0.01, 0.001, 0.0001, 0.00001 μM in a final volume of 200 μL/well.\nFollowing the proper timing of incubation (from 6 h to 72 h), 0.05×10^6 cells/well MOLM-13 and NK cells in 96-well round bottom plates (Corning® Costar® Ultra-Low Attachment Multiple 96-Well Plate; Thermo Scientific, Denmark, ref #7007) were centrifuged at 300 g for 5 minutes at RT. Supernatant was aspirated and Tampon Running Buffer (Miltenyi, ref #130-091-2221) or the antibodies were added to the cell pellets (50 μL/well). In addition, 1 μL of each antibody was used to stain the compensation beads. The cells and the beads were incubated for 20 minutes at 4° C. […]\nas §3"}, "[5]": {"system": "CD123 on MOLM-13 cells", "experiment": "CD123 expression on MOLM-13 cells by flow cytometry", "assay_type": "cell-based", "conditions": "for CD123 expression level (MedFI) on MOLM-13 cells: 0.01 nM to 10 μM; for CD123 expression (median fluorescence intensity) on MOLM-13 cells: 1 nM and 1 μM, 6 h, 24 h or 48 h, MOLM-13 alone or with NK cells from two donors; for CD123 target expression on MOLM-13 AML tumor cells (conclusion): at the tested concentrations, up to 6 days of treatment", "method": "as §2, §3\n(§5) Finally, NK cell at effector:target (E:T) ratio of 1:1 (thus 0.05×10^6 cells/well) were incubated with MOLM-13 cell line at 37° C. in the presence of 5% CO2. After 6 h, 24 h, or 48 h, plates were centrifuged at 300 g for 5 minutes at RT. The Tampon Running Buffer or the selected antibodies were added to the cell pellets (50 μL/well) to assess cell viability and to perform the flow cytometry-based staining."}, "[6]": {"system": "NKp46 on NK cells", "experiment": "NKp46 expression on NK cells by flow cytometry", "assay_type": "cell-based, human", "conditions": "1 μM AZA or 1 nM VEN", "method": "as §1, §2, §3"}, "[7]": {"system": "CD16a on NK cells", "experiment": "CD16a expression on NK cells by flow cytometry", "assay_type": "cell-based, human", "conditions": "1 μM AZA or 1 nM VEN", "method": "as §1, §2, §3"}, "[8]": {"system": "CD123-positive MOLM-13 AML cell line", "experiment": "5-azacytidine and venetoclax flow cytometry cytotoxic assay, 48 h", "assay_type": "cell-based", "method": "The MOLM-13 cell line (DSMZ ACC 554) is an acute myeloid leukemia cell line. These cells are mostly round cells growing in suspension. For maintenance, cells were resuspended in fresh RPMI1640 medium supplemented with 10% Fetal Bovin Serum (FBS; Biowest, ref #S140H-100) and 2 mM L-Glutamine (Gibco, ref #25030-024) referred as complete culture medium at 0.3×10^6 cells/mL for 3 or 4 days.\nOn the day of the assay, the product was thawed and vortexed to eliminate potential aggregates before cascade dilution. A first dilution of 1/100 was performed in complete culture medium. Then, a dilution range from 20 μM (twice concentrated) to 20 pM (1/10 serial dilution) was performed in complete culture medium to assess the concentration-dependent effect of the single agent.\nSimilarly, stock solution of VEN was stored in complete culture medium at 4° C. On the day of the assay, the product was vortexed to eliminate potential aggregates before cascade dilution. A dilution range from 20 μM (twice concentrated) to 20 pM (1/10 serial dilution) was performed in complete culture medium to assess the concentration-dependent effect of the single agent.\nas §4\nCD123-positive MOLM-13 target cells were counted the day of the assay and the amount of cell needed for the experiment was evaluated. Target cells were seeded at 0.05×10^6 cells/50 μL of complete culture medium per well.\nIn the meantime, compound seral dilutions or the four defined concentrations were prepared and added to a U-bottom 96-well plate (100 μL/well). As controls, target cells alone without drugs, were cultured at the same concentration in complete culture medium (200 μL/well). Each condition was performed in monoplicate.\nCulture plates were incubated at 37° C. in the presence of 5% CO2 for 48 h. The plates were centrifuged at 300 g for 5 minutes at RT and resuspended in 100 μL of PBS to the following reading by MACSQuant Analyzer 16 Flow. The marker of viability PI was added to every well reading at dilution 1/10."}, "[9]": {"conditions": "cited from earlier work"}, "[10]": {"system": "CD123-positive MOLM-13 cells", "experiment": "5-azacytidine and venetoclax cytotoxic assays in the absence or presence of NK cells (6 h, 24 h, 48 h)", "assay_type": "cell-based", "conditions": "VEN 1 μM", "method": "as §5"}, "[11]": {"conditions": "at the dose of 400 mg; cited from earlier work"}},
  "note": "Entries after “also recorded” stand apart in the source; their conditions may differ.",
  "data": [
    {"smiles": "Nc1ncn([C@@H]2O[C@H](CO)[C@@H](O)[C@H]2O)c(=O)n1", "note": "[AZA, 4-amino-1-beta-D-ribofuranosyl-s-triazin-2 (1H)-one]", "values": [
      {"measurement": "impact on NK cell phenotype", "setting": "[1]", "value": "minimal impact"},
      {"measurement": "MOLM-13 cell viability", "setting": "[2]; AZA 600 nM and 3 μM", "value": "did not affect"},
      {"measurement": "target cell lysis, single agent", "setting": "[3]", "value": "increased target cell lysis; also recorded: some target lysis"},
      {"measurement": "NK cell viability", "setting": "[4]", "value": "did not negatively impact; also recorded: no cytotoxic effect"},
      {"measurement": "CD123 expression level (MedFI) on MOLM-13 cells", "setting": "[5]; 48 h", "value": "minimal impact"},
      {"measurement": "CD123 expression (median fluorescence intensity) on MOLM-13 cells", "setting": "[5]", "value": "did not impact"},
      {"measurement": "CD123 median of fluorescence intensity (MedFI) on MOLM-13 cells", "setting": "[5]; AZA at 1 and 10 μM, 48 h", "value": "slight decrease"},
      {"measurement": "CD123 target expression on MOLM-13 AML tumor cells (conclusion)", "setting": "[5]", "value": "minimal impact"},
      {"measurement": "NKp46 expression level on NK cells", "setting": "[6]", "value": "no impact"},
      {"measurement": "CD16a expression level on NK cells", "setting": "[7]", "value": "no impact"},
      {"measurement": "MOLM-13 AML cell viability", "setting": "[8]; AZA at high concentration (10 μM), 48 h", "value": "strongly decreased; also recorded: cytotoxic activity"},
      {"measurement": "MOLM-13 AML cell viability", "setting": "[8]; AZA at lower concentrations, 48 h, compared to non-treated control", "value": "No effect"}
    ]},
    {"smiles": "CC1(C)CCC(CN2CCN(c3ccc(C(=O)NS(=O)(=O)c4ccc(NCC5CCOCC5)c([N+](=O)[O-])c4)c(Oc4cnc5[nH]ccc5c4)c3)CC2)=C(c2ccc(Cl)cc2)C1", "note": "[VEN]", "values": [
      {"measurement": "impact on NK cell phenotype", "setting": "[1]", "value": "minimal impact"},
      {"measurement": "MOLM-13 viability", "setting": "[2]; VEN 2, 5 and 10 nM", "value": "impacted MOLM-13 viability mainly after 6 days"},
      {"measurement": "target cell lysis, single agent", "setting": "[3]", "value": "increased target cell lysis; also recorded: some target lysis"},
      {"measurement": "aqueous solubility", "setting": "[9]", "value": "very low"},
      {"measurement": "NK cell viability", "setting": "[4]", "value": "did not negatively impact; also recorded: no cytotoxic effect"},
      {"measurement": "CD123 expression level (MedFI) on MOLM-13 cells", "setting": "[5]; 48 h", "value": "mild reduction"},
      {"measurement": "CD123 expression (median fluorescence intensity) on MOLM-13 cells", "setting": "[5]", "value": "did not impact"},
      {"measurement": "CD123 target expression on MOLM-13 AML tumor cells (conclusion)", "setting": "[5]", "value": "minimal impact"},
      {"measurement": "killing potential on MOLM-13 cells", "setting": "[10]", "value": "enhanced killing potential"},
      {"measurement": "impact on MOLM-13 cell viability", "setting": "[10]; 6 h", "value": "no impact"},
      {"measurement": "impact on MOLM-13 cell viability", "setting": "[10]; 24 h", "value": "moderate"},
      {"measurement": "impact on MOLM-13 cell viability", "setting": "[10]; 48 h", "value": "strong impact"},
      {"measurement": "plasma concentration", "setting": "[11]", "value": 2, "unit": "µM"},
      {"measurement": "NKp46 expression level on NK cells", "setting": "[6]", "value": "no impact"},
      {"measurement": "CD16a expression level on NK cells", "setting": "[7]", "value": "no impact"},
      {"measurement": "MOLM-13 cell viability, concentration-dependent response", "setting": "[8]; VEN 0.01 nM to 10 μM, 48 h", "value": "impact on MOLM-13 cell viability from 10 nM to 10 μM"},
      {"measurement": "killing activity as a single agent", "setting": "[8]; VEN at its plasma concentration, 2 μM", "value": "very strong killing activity"}
    ]}
  ]
}
